Data from US20100304426A1, “Analytical Methods for Measuring Synthetic Progesterone” (priority 2009, published 2010).
Read-outs that look alike come from different tables or passages of the source. Marks after values point to notes of the source that are not given here.

How the values were obtained:
clinical = details: human, in vivo, 200 mg
Text: A definitive low-level LC/MS/MS analytical method to determine the concentrations of synthetic progesterone in human plasma is described. Instrumentation used in this example includes an Applied Biosystems Q-Trap 4000 system using Analyst® 1.4.2 software, Shimadzu LC-20AD HPLC pumps and a LEAP HTC PAL Autosampler. As understood by a person skilled in the art, various similar or equivalent pieces of instrumentation can be used to perform this method. It is also recognized that improved instrumentation can be introduced utilizing equivalent or similar principles of analysis to perform this method similarly or better by being faster, more sensitive, more accurate or more robust relative to the instrumentation used herein. Analyze the pregnant female plasma isotopic ratio standard seven consecutive times. Analyze the synthetic isotopic ratio standard at least seven consecutive times. Analyze the plate beginning with the first calibration sample. Using the data from the seven injections of pregnant female plasma calculate the average area for the progesterone transition and for the progesterone isotope transition. Calculate the ratio by dividing the average area of the progesterone peak by the average area of the isotope peak. This is the natural progesterone ratio. Using the data from the seven injections of the Synthetic Standard calculate the average area for the progesterone transition and for the progesterone isotope transition. Calculate the ratio by dividing the average area of the progesterone peak by the average area of the isotope peak. This is the synthetic progesterone ratio. […] In addition, data presented herein are for fasted post-menopausal women. Fasting can affect progesterone uptake. In this example, healthy, fasted, post-menopausal women orally ingest 1×200 mg progesterone. Plasma samples are obtained from 2 h pre-dose to 24 h post-dose. […] Cmax is the maximum observed concentration and Tmax the time at which Cmax took place. Clast is the value of the last measurable concentration, and […].

[1] = set-up: AUC / Cmax: unit not given beside the values; details: from package insert, total progesterone, cited from earlier work
[2] = reported; cited from earlier work

In the case of `CC(=O)[C@H]1CC[C@H]2[C@@H]3CCC4=CC(=O)CC[C@]4(C)[C@H]3CC[C@]12C` [PROMETRIUM, pregn-4-ene-3,20-dione], the AUC (clinical; female) was 1.6 ng·h/mL, the Cmax (clinical; female) was 3.1 ± 2.3 and the Cmax (clinical; female, Cmax) was 1.05 ng/mL. For the same molecule, the Tmax (clinical; female, po) was 2.63 h, the AUC(0-t) (clinical; female, po, AUC0-4 h) was 1.01 to 2.37 ng·h/mL and the AUC(0-t) (clinical; female, po, AUClast) was 2.11 ng·h/mL. The Cmax (clinical; female, po, Cmax) was 0.62 to 1.6 ng/mL, the AUC ([1]; 100 mg after 5 daily doses) was 43.3 + 30.8 and the Cmax ([1]; 100 mg after 5 daily doses) was 17.3 + 21.9. For the same molecule, the Cmax ([1]; 200 mg after 5 daily doses) was 38.1 + 37.8, the Tmax ([1]; 200 mg after 5 daily doses) was 2.3 + 1.4 and the AUC ([1]; 300 mg after 5 daily doses) was 175.7 + 170.3. For the same molecule, the Cmax ([1]; 300 mg after 5 daily doses) was 60.6 + 72.5 and the Tmax ([1]; 300 mg after 5 daily doses) was 1.7 + 0.6.
For `CC(=O)[C@H]1CC[C@H]2[C@@H]3CCC4=CC(=O)CC[C@]4(C)[C@H]3CC[C@]12C` [progesterone], the “half life in the circulation” value [2] is listed as “only a few minutes”.
For `CC(=O)[C@H]1CC[C@H]2[C@@H]3CCC4=CC(=O)CC[C@]4(C)[C@H]3CC[C@]12C` [Endogenous Progesterone], the AUClast (clinical; po) was 3.84 ng·h/mL and the Tmax (clinical; po) was 2.33^a h.
Work on `CC(=O)[C@H]1CC[C@H]2[C@@H]3CCC4=CC(=O)CC[C@]4(C)[C@H]3CC[C@]12C` [Total Progesterone] yielded an AUClast (clinical; po) of 6.47 ng·h/mL and a Tmax (clinical; po) of 2.00 h.
